The values below are quoted from earlier work in patent publication US6579860B1, “Interleukin-6 production inhibitors” (Toray Industries, Inc., priority 1998, dated 2003).

This data set deals with mouse macrophage cells. The conditions noted are these: Pannanen N. et al., Pharmaceutical Research 12(6).
For `O=P(O)(O)C(Cl)(Cl)P(=O)(O)O` [clodronate], the “effect on cytokine production/release” value is on record as “suppresses cytokine production”.

Turning to `CC(O)(P(=O)(O)O)P(=O)(O)O` [etidronate], the “effect on cytokine production/release” value is listed as “does not have such an effect”.

As to `NCCC(O)(P(=O)(O)O)P(=O)(O)O` [pamidronate], the “effect on cytokine production/release” value is “enhances release of cytokine”.
